Several values for one entry are separate records, joined by “and”; a condition that tells them apart may be missing. Identical values can stand only once. Activity calls are given as the source filed them.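 How the source made its calls: active means compounds giving half or more protection of infected cells from virus-caused growth loss, again on retest; inactive means the rest.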

The test system of this test is CEM cells HIV-1 protection, formazan growth assay. Briefly: NCI AIDS Antiviral Assay. The settings on record: for IC50: measured here: growth of uninfected CEM cells. As to the method:
The ability of compounds to protect human CEM cells from HIV-1 infection is measured as a screen for new compounds capable of inhibiting the HIV virus. Five concentrations of drug were tested on uninfected and infected cells and cell growth was measured using a soluble formazan assay. […] Compounds that provided at least 50% protection were retested. Compounds that provided at least 50% protection on retest were listed as moderately active. Compounds that reproducibly provided 100% protection were listed as confirmed active. […] Note that the inability to provide protection could be due to toxicity.

As for `COP(=O)(OC)C(NC(=O)C(F)(F)F)(c1ccccc1)C(F)(F)F` (stereo not given), the EC50 (usually the concentration needed to bring the measured effect to its halfway point) is > 200 µM and the IC50 (as a rule, the concentration needed to halve the response being measured) was > 200 µM. `COc1cc2c(cc1O)CN1CCC23C=C[C@@H](O)CC13` (stereo not given in full): the EC50 is > 912 µM and the IC50 was found to be 38.9 µM. The corresponding values for `CO[C@@]12[C@@H]3N[C@@H]3CN1C1=C(C(=O)C(N3CCOCC3)=C(C)C1=O)[C@@H]2COC(N)=O` are > 200 µM and > 200 µM.

Regarding `COc1cc(C2OC(N)=C(C#N)C3=C2C(C)CCC3)cc(OC)c1OC` (stereo not given), the outcome was inactive. As for `CCOC(=S)SC1OC(COC(C)=O)C(OC(C)=O)C(OC(C)=O)C1OC(C)=O` (stereo not given), the EC50 was > 200 µM and the half-inhibitory concentration (IC50) was 35.5 µM.

In the case of `CN1CC(Br)(Br)C(=O)N(C)C1=O`, the EC50 is > 200 µM and the IC50 is 3.24 µM.

`N#CCCN(C(=O)Nc1ccccc1)[C@H]1CCCC[C@@H]1N(C(=O)Nc1ccccc1)c1ccccc1`: the EC50 was > 200 µM and the IC50 was 33.1 µM. The corresponding values for `COC(=O)/C(=N\N)C(C(=O)C(=O)Nc1nc(=S)[nH][nH]1)c1nc2ccc([N+](=O)[O-])cc2[nH]c1=O` (stereo not given) are > 75.9 µM and > 75.9 µM. The corresponding values for `CC(=O)Nc1ccc(-c2nnc(SCC(=O)Nc3cccc(Cl)c3)o2)cc1` are > 46.8 µM and 7.59 µM. As to `O=C1[C@@H]2C[C@@H](O)CN2C(=O)c2ccccc2N1CCCO`, the result was inactive. Turning to `CCOC(=O)Cc1nc(Nc2ccc(F)c(Cl)c2)c2c3c(sc2n1)CCCC3`, the EC50 is > 12.3 µM and the IC50 was > 12.3 µM.

`O=S(=O)(O)C(O)C(O)S(=O)(=O)O` (stereo not given): the EC50 is > 200 µM and the IC50 was 79.4 µM. As to `COc1cccc2c1C(=O)c1c(O)c3c(c(O)c1C2=O)C[C@@](O)(C(C)=O)C[C@@H]3OC1CC(N(Cc2ccccc2)Cc2ccccc2)C(O)C(C)O1` (stereo not given in full), the outcome was inactive. `CC(=O)O[C@]1(C(C)=O)CC[C@H]2[C@@H]3C[C@H](C)C4=CCCC[C@]4(C)[C@H]3CC[C@@]21C`: the EC50 was > 100 µM and the IC50 is > 100 µM. On to `CCOc1cccc2ccc[n+](CC)c12`, for which the EC50 was > 251 µM and the IC50 was 25.1 µM. Take `c1ccc([P+](CCCCCC[P+](c2ccccc2)(c2ccccc2)c2ccccc2)(c2ccccc2)c2ccccc2)cc1`: the EC50 was > 200 µM; the IC50 is 5.37 µM and 7.24 µM. For `Cc1c(C(=O)NNc2ccccc2)n2c(=S)[nH]nc2c2ccccc12`, the EC50 is > 200 µM and the IC50 turned out to be 93.3 µM. Regarding `CCC(=O)Oc1ccc2c(=O)c(-c3ccc(OC)cc3)c(CC)oc2c1`, the EC50 was > 200 µM and the IC50 is 25.1 µM.

On to `CC(C)(C)OC(=O)NC(Cc1ccccc1)C(=O)N[C@H]1c2ccsc2/C(=N/O)[C@H]1O` (stereo not given in full), for which the EC50 is > 200 µM and the IC50 was found to be 91.2 µM.

Regarding `N[C@H](CCOc1ccc(/C(=N/O)C(=O)N[C@H]2CN([C@@H](C(=O)O)c3ccc(O)cc3)C2=O)cc1)C(=O)O`, the EC50 is > 200 µM and the IC50 was > 200 µM. For the molecule `CN(C)c1ccc(/C=C(\C#N)c2ccc(Cl)c(Cl)c2)cc1`, the EC50 was > 100 µM and the IC50 was 3.63 µM. Take `COc1ccc(/C(C)=N/NC(=S)N(C)C)c(O)c1`: the EC50 was > 200 µM and the IC50 is 4.79 µM. As for `CCN(C(=O)c1ccccc1C)C(c1ccccc1)P(=O)(c1ccccc1)c1ccccc1` (stereo not given), the outcome was inactive. For `CC(C)=CCC[C@@H](C)C1[C@@H](OC2OC(CO)C(O)C(O)C2O)CC2(C)[C@@H]3CC(=O)C4C(C)(C)[C@@H](OC5OC(CO)C(O)C(O)C5O)CC[C@@]45C[C@@]35CC[C@]12C` (stereo not given in full), the EC50 is > 33.1 µM and the 50% inhibitory concentration (IC50) amounted to 31.6 µM. Turning to `CCOC(=O)Cc1oc2c(C(C)=O)c(O)c(C)c(O)c2c1C`, the EC50 is > 200 µM and the IC50 was 81.3 µM. The corresponding values for `COc1ccc2c3c1OC1C4(OC)C=CC5(c6c(OC)ccc(O)c64)C(C2)N(C)CCC315` (stereo not given) are > 100 µM and 53.7 µM. For `CCCCCCCCCCCCCNC1=C(O)c2ccccc2C(=O)C1=O`, the outcome was inactive. On to `O=C1C2=C(Nc3cc([N+](=O)[O-])ccc3N2)OC1c1ccccc1` (stereo not given), for which the EC50 is > 17 µM and the 50% inhibitory concentration (IC50) is > 17 µM. On to `O=C(CCc1nnc2s/c(=C\c3ccc([N+](=O)[O-])cc3)c(=O)n12)Nc1ccc(Cl)c(Cl)c1`, for which the EC50 is > 69.2 µM and the IC50 is 38.9 µM. Taken in the same sequence, the figures for `CN(C)N=Nc1cn[nH]c1C(N)=O` were > 138 µM and 6.76 µM. Taken in the same sequence, the figures for `CCCCC(C=O)(C=C=C(C)C)CC` (stereo not given) were > 339 µM and 34.7 µM. Taken in the same sequence, the figures for `N#CC(NNC(=O)c1ccccc1O)c1ccc(O)cc1` (stereo not given) were > 331 µM and 1.95 µM.

Consider `CCCCCCCCCCCCCCCC(=O)OC(CC(=O)O)C[N+](C)(C)C` (stereo not given), for which the outcome was inactive. For `CC1C2(C)OC(=N)C(C#N)(C(C)O2)C1(C#N)C#N` (stereo not given), the EC50 was > 200 µM and the IC50 amounted to 9.77 µM.

Regarding `C/C(=N\N=C(\N)SB(F)F)c1ccc2ccccc2c1`, the EC50 is > 200 µM and the IC50 was 29.5 µM. `COP(=O)(OC)/C(=C/c1cn(C(C)=O)c2ccccc12)NC(C)=O`: the EC50 was > 200 µM and the IC50 amounted to 17.4 µM. Take `O=[N+]([O-])c1c(O)c2nonc2c2nn(-c3ccccc3)nc12`: the EC50 is > 200 µM and the IC50 amounted to 120 µM. Taken in the same sequence, the figures for `CC(C)CC(NC(=O)C(COc1ccc([N+](=O)[O-])cc1)Cc1ccccc1)C(=O)Nc1ccccc1` (stereo not given) were > 100 µM and 15.1 µM. Taken in the same sequence, the figures for `Cc1cc2c(nn1)CCc1c-2no[n+]1[O-]` were > 200 µM and 174 µM. The corresponding values for `Cc1cn([C@@H]2C[C@H](CO)[C@@H]2O)c(=O)[nH]c1=O` are > 200 µM and > 200 µM.

For `N#CCCN(CCC#N)c1ccc(/C=C2\N=C(c3ccccc3)N(c3ccc(Cl)cc3)C2=O)cc1`, the EC50 was > 200 µM and the IC50 was > 200 µM. Take `CN(C)CC1CCCC(CN(C)C)C1O` (stereo not given): the EC50 is > 871 µM and the IC50 was > 871 µM.

In the case of `Nc1ncnc2c1ncn2C1C=CC(=O)CC1` (stereo not given), the EC50 is > 31.6 µM and the IC50 is 5.62 µM.

Take `COCCOCCOCCOc1cccc2c1C(=O)c1c(OCCOCCOCCOC)cccc1C2=O`: the result was inactive. `Cn1c(=O)c2sc3cc4c(cc3c2c2ccccc21)sc1c(=O)n(C)c2ccccc2c14`: the EC50 was > 100 µM and the IC50 was determined as 61.7 µM. Regarding `O=[N+]([O-])C(=C(Cl)Cl)/C(Cl)=C(\Cl)Br`, the outcome was inactive. Consider `CC(C)=C(OP1(=S)OCCN1C)C(C)(C)C(=O)N(C)C` (stereo not given), for which the EC50 is > 776 µM and the IC50 was determined as 537 µM.

For `O=C(Nc1ccccc1)N(C1=NCC(CI)S1)c1ccc(F)cc1F` (stereo not given), the EC50 was > 200 µM and the IC50 came to 25.1 µM.

Turning to `Cc1c2ncccc2cc2oc3ccccc3c(=O)c12`, the EC50 was > 200 µM and the IC50 was 10 µM. Taken in the same sequence, the figures for `NC(Cc1ccc(S(=O)(=O)O)cc1)C(=O)NC(CCCCNC(=O)NCCCCC(NC(=O)C(N)Cc1ccc(S(=O)(=O)O)cc1)C(=O)NC(Cc1ccc(S(=O)(=O)O)cc1)C(=O)O)C(=O)NC(Cc1ccc(S(=O)(=O)O)cc1)C(=O)O` (stereo not given) were > 100 µM and > 100 µM. Taken in the same sequence, the figures for `COc1ccc2nc3c([N+](=O)[O-])ccc4c3c(c2c1)N=CN4CCN(C)C` were > 100 µM and 1.02 µM. Turning to `C[Si](C)(C)c1ccc(-c2sc(-c3ccc([Si](C)(C)C)s3)c3c2C[Si]2(C3)Cc3c(-c4ccc([Si](C)(C)C)s4)sc(-c4ccc([Si](C)(C)C)s4)c3C2)s1`, the EC50 is > 5.75 µM and the IC50 is > 5.75 µM. With `Cc1ccc2c(c1C)CC1(Cc3c(C)ccc(C)c3C1=O)C2=O` (stereo not given), the EC50 is > 100 µM and the IC50 was > 100 µM. Turning to `O=[N+]([O-])/C(Cl)=C(/C(Cl)=C(Cl)Cl)N1CCCCC1`, the EC50 was > 200 µM and the IC50 was 12.3 µM.

For `Cc1nc(N)c(-c2ccccc2)s1`, the EC50 is > 135 µM and the IC50 was > 135 µM.

For the molecule `COC(=O)/C(=C\c1ccco1)P(=O)(OC)OC`, the EC50 is > 200 µM and the IC50 was determined as 191 µM. Taken in the same sequence, the figures for `O=C(Nc1nc2ncn(CC(COc3ccccc3)OC(=O)c3ccccc3)c2c(=O)[nH]1)c1ccccc1` (stereo not given) were > 70.8 µM and > 70.8 µM. Regarding `O=[N+]([O-])c1cccc(N=Cc2ccc(O)cc2)c1`, the EC50 is > 200 µM and the 50% inhibitory concentration (IC50) stood at 182 µM. In the case of `CC1c2c(n(C)c3ccccc23)C2CCC3(CO3)C1N2Cc1ccccc1` (stereo not given), the result was inactive. Take `COc1cc(OC)c(CSCC(NC(=O)OCC2c3ccccc3-c3ccccc32)C(=O)O)c(OC)c1` (stereo not given): the EC50 is > 200 µM and the IC50 was 105 µM.

Take `CC(C)(C)N/N=C(\Cc1occc(=O)c1O)C(=O)Nc1ccc([N+](=O)[O-])cc1[N+](=O)[O-]`: the EC50 was > 158 µM and the IC50 was > 158 µM. Regarding `O=C(O)c1cc(/C=C/c2cc(O)ccc2O)ccc1O`, the EC50 is > 182 µM and the IC50 was determined as 15.5 µM. Consider `COc1ccc(-c2nc(N)c(C#N)c3c2CCSc2ccc(C)cc2-3)cc1OC`, for which the EC50 is > 200 µM and the IC50 was 11.7 µM. The corresponding values for `CCOC(=O)Cn1c(=O)c(-c2ccccc2NC(C)=O)nc2ccccc21` are > 200 µM and > 200 µM.

For `O=C1C=C(Nc2ccc(S(=O)(=O)Nc3ncccn3)cc2)c2ccccc2C1=O`, the EC50 is > 447 µM and the IC50 was 67.6 µM.

On to `C=CCc1cc(OC)c2c(c1)C(OC(C)=O)CC(c1ccc(OC)c(OC)c1)O2` (stereo not given), for which the EC50 was > 46.8 µM and the IC50 was > 46.8 µM. On to `OCC(CN1CCCCC1)(CN1CCCCC1)CN1CCCCC1`, for which the EC50 was > 50.1 µM and the IC50 was > 50.1 µM.

For the origin of these results see PubChem BioAssay AID179 (DTP/NCI, 2004).
